Test results as given in patent US9221985B2, “Solvent compositions” (TBF Environmental Technology, Inc., priority 2013, dated 2015).
Like-named read-outs stand apart in the source and are kept apart here.

Columns and labels:
[1] = Viscosity of Paraloid B-66 DMC acrylic resin with reduction in solids; assay type: physicochemical
[2] = Physical/chemical characteristics of the solvents (specific gravity, flash point, boiling point, viscosity, surface tension, volatility); conditions: for Surface tension: at 20° C.
[3] = Evaporation rate relative to n-butyl acetate / xylene; assay type: physicochemical
Description: […]. […] Without being bound to any particular theory, the “tail” solvent may slow the drying of a coating towards the end, allowing time for it to flow and level, and preventing dry spray, thereby improving the film appearance.
The evaporation rate of Formulation 1vs xylene was examined (FIG. 1). Formulation 1 was faster evaporating than xylene by a factor of 1.63-1.65. However it was apparent that the evaporation rate of Formulation 1 slowed towards the end. This slower “Tail” would aid in flow and leveling and help prevent dry spray.

[4] = cited from earlier work
[5] = Hansen solubility parameters
Description: In some embodiments, a solvent composition according to the present disclosure includes an acetate ester, such as MA, EA, or TBAc, in combination with one or more additional reagents to increase dispersion and decrease hydrogen bonding and/or to decrease the polarity of the solvent composition.

[6] = Solvency or reduction characteristics: viscosity of epoxy resin reduced with solvent; assay type: physicochemical
[7] = reduced to 35.0% non-volatile with the solvent
[8] = reduced to 40.0% non-volatile with the solvent
[9] = relative to n-butyl acetate = 1
[10] = EPON 828 reduced to 95% solids content by weight

Compound | Viscosity of Paraloid B-66 DMC [1, 7] [cps] | Viscosity of Paraloid B-66 DMC [1, 8] [cps] | Boiling Point [2] | Viscosity @ 20° C. [2] | Specific Gravity (@25° C.) [2] | Flashpoint (TCC) [2] | Surface tension [2] | Evaporation rate (n-butyl acetate = 1) [3, 9] | δD (dispersion) [5] [cal^1/2 cm^−3/2] | δH (hydrogen bonding) [5] [cal^1/2 cm^−3/2] | δP (polar) [5] [cal^1/2 cm^−3/2] | Viscosity @ 20 RPM ([6]; EPON 828, 50% solids content) [cps] | Viscosity @ 20 RPM ([6]; EPON 828, 55% solids content) [cps] | Viscosity @ 20 RPM ([6]; EPON 828, 60% solids content) [cps] | Viscosity @ 20 RPM ([6]; EPON 828, 65% solids content) [cps] | Viscosity @ 20 RPM ([6]; EPON 828, 70% solids content) [cps] | Viscosity @ 20 RPM ([6]; EPON 828, 75% solids content) [cps] | Viscosity @ 20 RPM ([6]; EPON 828, 80% solids content) [cps] | Viscosity @ 20 RPM ([6]; EPON 828, 85% solids content) [cps] | Viscosity @ 20 RPM ([6]; EPON 828, 90% solids content) [cps] | further results
COC(=O)OC [DMC, dimethyl carbonate] | 370 | 970 |  |  |  |  |  |  |  |  |  |  |  |  |  |  |  |  |  |  | 
COC(C)=O [MA, methyl acetate] |  |  | 56 °C | 0.37 (mPa · s) cP | 0.93 | −4 °C | 24.8 dyn/cm | 6.2 | 7.6 | 3.7 | 3.5 |  |  |  |  |  |  |  |  |  | solubility in water ([4]; in water at room temperature): 25%; stability ([4]; strong aqueous bases or aqueous acids): not stable in the presence of strong aqueous bases or aqueous acids; δ (Hansen solubility parameter) [5]: 9.5 cal^1/2 cm^−3/2
FC(F)(F)c1ccc(Cl)cc1 [PCBTF, parachlorobenzotrifluoride] | 450 | 1050 | 139 °C | 0.79 (mPa · s) cP | 1.34 | 109 °C | 25 dyn/cm | 0.9 | 8.8 | 1.9 | 2.9 | 27 | 38 | 52 | 91 | 153 | 278 | 544 | 1010 | 1900 | Viscosity @ 20 RPM [6, 10]: 5125 cps; δ (Hansen solubility parameter) [5]: 9.15 cal^1/2 cm^−3/2
CC(=O)OC(C)(C)C [TBAc, tert-butyl acetate] | 290 | 780 | 98 °C | 0.7 (mPa · s) cP | 0.87 | 16.7 °C | 22.4 dyn/cm |  | 7 | 2.9 | 1.7 | 15 | 19 | 22 | 26 | 81 | 93 | 192 | 430 | 1150 | Viscosity @ 20 RPM [6, 10]: 4250 cps; Evaporation rate (n-butyl acetate = 1) [3]: 2.8
Cc1ccccc1 [Toluene, toluene] |  |  |  | 0.59 (mPa · s) cP | 0.86 | 16 °C | 27.73 dyn/cm | 1.9 | 8.8 | 0.98 | 0.68 |  |  |  |  |  |  |  |  |  | 
xylene [Xylenes] | 580 | 1500 | 110.6-144 °C | 0.34-0.8 (mPa · s) cP | 0.87 | 17-25 °C | 25.32-28.27 dyn/cm |  | 9.2 | 1.15 | 1.3 | 13 | 17 | 19 | 28 | 40 | 76 | 148 | 330 | 880 | Flashpoint (TCC) ([2]; listed as xylene): 30 °C; Viscosity @ 20 RPM [6, 10]: 3350 cps; Evaporation rate (n-butyl acetate = 1) [3]: 0.9
